Among the data in patent US11040954B1, “CXCR3 receptor agonists” (RECEPTOS LLC, priority 2016, dated 2021) are EC50 values, retold here.

One may read the EC50 as the concentration that produces a half-maximal response.

The target of one test is T1, CXCR3 (Homo sapiens, UniProt P49682).
T1 construct: host or cells: CHO-K1 (cAMP Hunter CHOK1 CXCR3 Gi cell line)
T1 sequence (P49682 1-368): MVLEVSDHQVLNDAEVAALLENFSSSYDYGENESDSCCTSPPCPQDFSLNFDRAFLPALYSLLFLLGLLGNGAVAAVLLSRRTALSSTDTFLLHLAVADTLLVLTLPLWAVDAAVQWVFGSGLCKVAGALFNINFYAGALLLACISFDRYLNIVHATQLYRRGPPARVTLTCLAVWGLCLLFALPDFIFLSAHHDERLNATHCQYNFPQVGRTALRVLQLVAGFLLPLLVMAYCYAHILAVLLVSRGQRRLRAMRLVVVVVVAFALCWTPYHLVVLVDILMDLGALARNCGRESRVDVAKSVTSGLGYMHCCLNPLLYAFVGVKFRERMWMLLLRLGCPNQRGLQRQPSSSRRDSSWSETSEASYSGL
Briefly: CXCR3 cAMP agonist assay (cAMP Hunter CHOK1 CXCR3 Gi cell line, forskolin-stimulated, HitHunter cAMP detection). Type of test: cell-based.
Details: not given
The method, boiled down:
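CHOK1 cells expressing human CXCR3 with Gi coupling, 50,000/well in suspension in HBSS/10 mM HEPES/0.1% BSA pH 7.4, were co-treated with 20 μM forskolin and compound (12-point, 0-10 μM, 1% DMSO) for 30 min. cAMP was read by enzyme-complementation luminescence; CXCL11 dose response set maximum efficacy.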
`Cc1cc(NC(=O)[C@H](CCN)NC(=O)[C@@H]2Cc3ccccc3CN2C(=O)CCC(=O)N2CCC(=O)CC2)ccc1Cl` [Compound 12-86] registered a half-maximal effective concentration (EC50) of 250 to 500 nM.

Still in this test, the particulars now being: cAMP Hunter CHOK1 CXCR3 Gi cells, 20 μM forskolin, 30 minutes; read-out: Activity (CXCR3 cAMP agonist assay compound EC50).
Regarding `Cc1cc(NC(=O)[C@H](CCN)NC(=O)[C@@H]2Cc3ccccc3CN2C(=O)CCC(=O)N2CC[C@@H](N(C)C)C2)ccc1Cl` [Compound 12-50], the EC50 was below 50 nM. On to `Cc1cc(NC(=O)[C@H](CCN)NC(=O)[C@@H]2Cc3ccccc3CN2C(=O)CCC(=O)N2CCCC2C(F)(F)F)ccc1Cl` (stereo partly drawn) [Compound 12-51], for which the concentration for a half-maximal effect (EC50) is below 50 nM. In the case of `Cc1cc(NC(=O)[C@H](CCN)NC(=O)[C@@H]2Cc3ccccc3CN2C(=O)CCC(=O)N2CCC(C(F)(F)F)C2)ccc1Cl` (stereo partly drawn) [Compound 12-52], the concentration for a half-maximal effect (EC50) was below 50 nM. For `Cc1cc(NC(=O)[C@H](CCN)NC(=O)[C@@H]2Cc3ccccc3CN2C(=O)CCC(=O)N2CCCC2c2ccccc2)ccc1Cl` (stereo partly drawn) [Compound 12-53], the concentration for a half-maximal effect (EC50) is below 50 nM.

Consider `Cc1cc(NC(=O)[C@H](CCN)NC(=O)[C@@H]2Cc3ccccc3CN2C(=O)CCC(=O)N2CCC(c3ccccc3)C2)ccc1Cl` (stereo partly drawn) [Compound 12-54], for which the concentration giving a half-maximal response (EC50) lay within 50 to 250 nM.

On to `Cc1cc(NC(=O)[C@H](CCN)NC(=O)[C@@H]2Cc3ccccc3CN2C(=O)CCC(=O)N2CC3CCCCC3C2)ccc1Cl` (stereo partly drawn) [Compound 12-55], for which the EC50 was below 50 nM.

Regarding `Cc1cc(NC(=O)[C@H](CCN)NC(=O)[C@@H]2Cc3ccccc3CN2C(=O)CCC(=O)N2CCCC[C@@H]2C)ccc1Cl` [Compound 12-56], the EC50 was below 50 nM.

Take `Cc1cc(NC(=O)[C@H](CCN)NC(=O)[C@@H]2Cc3ccccc3CN2C(=O)CCC(=O)N2CCC[C@@H](C)C2)ccc1Cl` [Compound 12-57]: the EC50 was below 50 nM.

Regarding `Cc1cc(NC(=O)[C@H](CCN)NC(=O)[C@@H]2Cc3ccccc3CN2C(=O)CCC(=O)N2CCC[C@H](C)C2)ccc1Cl` [Compound 12-58], the 50% effective concentration (EC50) is below 50 nM. In the case of `Cc1cc(NC(=O)[C@H](CCN)NC(=O)[C@@H]2Cc3ccccc3CN2C(=O)CCC(=O)N2CCC3(CCC3)CC2)ccc1Cl` [Compound 12-59], the EC50 is below 50 nM. On to `Cc1cc(NC(=O)[C@H](CCN)NC(=O)[C@@H]2Cc3ccccc3CN2C(=O)CCC(=O)N2CCC(C(C)C)CC2)ccc1Cl` [Compound 12-60], for which the EC50 is below 50 nM.

As to `CCC1CCN(C(=O)CCC(=O)N2Cc3ccccc3C[C@H]2C(=O)N[C@@H](CCN)C(=O)Nc2ccc(Cl)c(C)c2)CC1` [Compound 12-61], the EC50 was below 50 nM. Still for that read-out and setting: the figure for `Cc1cc(NC(=O)[C@H](CCN)NC(=O)[C@@H]2Cc3ccccc3CN2C(=O)CCC(=O)N2CCCC(O)C2)ccc1Cl` (stereo partly drawn) [Compound 12-62] is below 50 nM; for `Cc1cc(NC(=O)[C@H](CCN)NC(=O)[C@@H]2Cc3ccccc3CN2C(=O)CCC(=O)N2CCCC(F)C2)ccc1Cl` (stereo partly drawn) [Compound 12-63] it is below 50 nM; for `COC1CCN(C(=O)CCC(=O)N2Cc3ccccc3C[C@H]2C(=O)N[C@@H](CCN)C(=O)Nc2ccc(Cl)c(C)c2)C1` (stereo partly drawn) [Compound 12-64] it is below 50 nM.

With `CC[C@@H]1CCCN1C(=O)CCC(=O)N1Cc2ccccc2C[C@H]1C(=O)N[C@@H](CCN)C(=O)Nc1ccc(Cl)c(C)c1` [Compound 12-65], the concentration for a half-maximal effect (EC50) is below 50 nM. With `Cc1cc(NC(=O)[C@H](CCN)NC(=O)[C@@H]2Cc3ccccc3CN2C(=O)CCC(=O)N2CC3CC(C3)C2)ccc1Cl` [Compound 12-66], the EC50 was below 50 nM.

As to `Cc1cc(NC(=O)[C@H](CCN)NC(=O)[C@@H]2Cc3ccccc3CN2C(=O)CCC(=O)N2CCC(F)CC2)ccc1Cl` [Compound 12-67], the concentration for a half-maximal effect (EC50) was below 50 nM. Still for that read-out and setting: the figure for `Cc1cc(NC(=O)[C@H](CCN)NC(=O)[C@@H]2Cc3ccccc3CN2C(=O)CCC(=O)N2CC(C)C(C)C2)ccc1Cl` (stereo partly drawn) [Compound 12-68] is below 50 nM; for `Cc1cc(NC(=O)[C@H](CCN)NC(=O)[C@@H]2Cc3ccccc3CN2C(=O)CCC(=O)N2CCC3(CC3)C2)ccc1Cl` [Compound 12-69] it is below 50 nM; for `Cc1cc(NC(=O)[C@H](CCN)NC(=O)[C@@H]2Cc3ccccc3CN2C(=O)CCC(=O)N2CCC(C#N)C2)ccc1Cl` (stereo partly drawn) [Compound 12-70] it is 50 to 250 nM. As to `Cc1cc(NC(=O)[C@H](CCN)NC(=O)[C@@H]2Cc3ccccc3CN2C(=O)CCC(=O)N2CCCC2C(C)C)ccc1Cl` (stereo partly drawn) [Compound 12-71], the concentration for a half-maximal effect (EC50) was below 50 nM. In the case of `Cc1cc(NC(=O)[C@H](CCN)NC(=O)[C@@H]2Cc3ccccc3CN2C(=O)CCC(=O)N2CCCCC23CCC3)ccc1Cl` [Compound 12-72], the EC50 is below 50 nM.

Consider `Cc1cc(NC(=O)[C@H](CCN)NC(=O)[C@@H]2Cc3ccccc3CN2C(=O)CCC(=O)N2CCCC23CCC3)ccc1Cl` [Compound 12-73], for which the half-maximal effective concentration (EC50) was below 50 nM. Consider `Cc1cc(NC(=O)[C@H](CCN)NC(=O)[C@@H]2Cc3ccccc3CN2C(=O)CCC(=O)N2CCC(C(C)C)C2)ccc1Cl` (stereo partly drawn) [Compound 12-74], for which the half-maximal effective concentration (EC50) was below 50 nM. As to `Cc1cc(NC(=O)[C@H](CCN)NC(=O)[C@@H]2Cc3ccccc3CN2C(=O)CCC(=O)N2CCC(C(C)(C)C)C2)ccc1Cl` (stereo partly drawn) [Compound 12-75], the EC50 was below 50 nM. For `Cc1cc(NC(=O)[C@H](CCN)NC(=O)[C@@H]2Cc3ccccc3CN2C(=O)CCC(=O)N2CCc3ccccc3C2)ccc1Cl` [Compound 12-76], the EC50 is below 50 nM. `Cc1cc(NC(=O)[C@H](CCN)NC(=O)[C@@H]2Cc3ccccc3CN2C(=O)CCC(=O)N2CCCC2C#N)ccc1Cl` (stereo partly drawn) [Compound 12-77]: the concentration for a half-maximal effect (EC50) was below 50 nM. For the compound `Cc1cc(NC(=O)[C@H](CCN)NC(=O)[C@@H]2Cc3ccccc3CN2C(=O)CCC(=O)N2CCCC3(CCC3)C2)ccc1Cl` [Compound 12-78], the EC50 is below 50 nM. Same read-out and setting: the value for `Cc1cc(NC(=O)[C@H](CCN)NC(=O)[C@@H]2Cc3ccccc3CN2C(=O)CCC(=O)N2CCCC(F)(F)C2)ccc1Cl` [Compound 12-79] was below 50 nM.

As to `Cc1cc(NC(=O)[C@H](CCN)NC(=O)[C@@H]2Cc3ccccc3CN2C(=O)CCC(=O)NCCC(C)C)ccc1Cl` [Compound 12-80], the EC50 is below 50 nM. For `Cc1cc(NC(=O)[C@H](CCN)NC(=O)[C@@H]2Cc3ccccc3CN2C(=O)CCC(=O)Nc2ccccc2)ccc1Cl` [Compound 12-81], the EC50 is below 50 nM. On to `Cc1cc(NC(=O)[C@H](CCN)NC(=O)[C@@H]2Cc3ccccc3CN2C(=O)CCC(=O)NC2CC2(F)F)ccc1Cl` (stereo partly drawn) [Compound 12-82], for which the 50% effective concentration (EC50) was in the range of 250 to 500 nM. In the case of `Cc1cc(NC(=O)[C@H](CCN)NC(=O)[C@@H]2Cc3ccccc3CN2C(=O)CCC(=O)NC(C)(C)C)ccc1Cl` [Compound 12-83], the concentration giving a half-maximal response (EC50) lay within 50 to 250 nM.

Consider `Cc1cc(NC(=O)[C@H](CCN)NC(=O)[C@@H]2Cc3ccccc3CN2C(=O)CCC(=O)N2CCCCC2C#N)ccc1Cl` (stereo partly drawn) [Compound 12-84], for which the EC50 was below 50 nM. Still for that read-out and setting: the value for `Cc1cc(NC(=O)[C@H](CCN)NC(=O)[C@@H]2Cc3ccccc3CN2C(=O)CCC(=O)NC2(C(F)(F)F)CC2)ccc1Cl` [Compound 12-85] was above 500 nM; that for `Cc1cc(NC(=O)[C@H](CCN)NC(=O)[C@@H]2Cc3ccccc3CN2C(=O)CCC(=O)N2CCC(C(C)(C)C)CC2)ccc1Cl` [Compound 12-87] was below 50 nM. On to `Cc1cc(NC(=O)[C@H](CCN)NC(=O)[C@@H]2Cc3ccccc3CN2C(=O)CCC(=O)NCCOC(C)C)ccc1Cl` [Compound 12-89], for which the concentration giving a half-maximal response (EC50) is above 500 nM.

Regarding `Cc1cc(NC(=O)[C@H](CCN)NC(=O)[C@@H]2Cc3ccccc3CN2C(=O)CCC(=O)NCCC(F)(F)F)ccc1Cl` [Compound 12-90], the concentration giving a half-maximal response (EC50) was in the range of 50 to 250 nM. On the same count and under the same terms, the value for `Cc1cc(NC(=O)[C@H](CCN)NC(=O)[C@@H]2Cc3ccccc3CN2C(=O)CCC(=O)NCC(C)(C)C)ccc1Cl` [Compound 12-91] was below 50 nM.

Consider `CCC(C)(C)NC(=O)CCC(=O)N1Cc2ccccc2C[C@H]1C(=O)N[C@@H](CCN)C(=O)Nc1ccc(Cl)c(C)c1` [Compound 12-92], for which the concentration giving a half-maximal response (EC50) was 50 to 250 nM. For `Cc1cc(NC(=O)[C@H](CCN)NC(=O)[C@@H]2Cc3ccccc3CN2C(=O)CCC(=O)N(C)C(C)(C)C)ccc1Cl` [Compound 12-93], the 50% effective concentration (EC50) was below 50 nM. As to `Cc1cc(NC(=O)[C@H](CCN)NC(=O)[C@@H]2Cc3ccccc3CN2C(=O)CCC(=O)N2CCC3(CCC3)C2)ccc1Cl` [Compound 12-94], the EC50 was below 50 nM. On to `Cc1cc(NC(=O)[C@H](CCN)NC(=O)[C@@H]2Cc3ccccc3CN2C(=O)CCC(=O)N2CCC3CCCCC32)ccc1Cl` (stereo partly drawn) [Compound 12-95], for which the half-maximal effective concentration (EC50) was below 50 nM.

Regarding `Cc1cc(NC(=O)[C@H](CCN)NC(=O)[C@@H]2Cc3ccccc3CN2C(=O)CCC(=O)N2CCCC(C(C)C)C2)ccc1Cl` (stereo partly drawn) [Compound 12-96], the EC50 is below 50 nM. As to `CC[C@H]1CCCCN1C(=O)CCC(=O)N1Cc2ccccc2C[C@H]1C(=O)N[C@@H](CCN)C(=O)Nc1ccc(Cl)c(C)c1` [Compound 12-97], the EC50 was below 50 nM. On to `Cc1cc(NC(=O)[C@H](CCN)NC(=O)[C@@H]2Cc3ccccc3CN2C(=O)CCC(=O)N(C)CCC(C)(C)C)ccc1Cl` [Compound 12-98], for which the EC50 was below 50 nM. For the compound `CCN1CCN(C(=O)CCC(=O)N2Cc3ccccc3C[C@H]2C(=O)N[C@@H](CCN)C(=O)Nc2ccc(Cl)c(C)c2)CC1` [Compound 12-99], the EC50 was in the range of 50 to 250 nM.

In the case of `Cc1cc(NC(=O)[C@H](CCN)NC(=O)[C@@H]2Cc3ccccc3CN2C(=O)CCC(=O)N2CCN(c3ccccc3)CC2)ccc1Cl` [Compound 12-101], the EC50 was above 500 nM.

For `Cc1cc(NC(=O)[C@H](CCN)NC(=O)[C@@H]2Cc3ccccc3CN2C(=O)CCC(=O)N2CCN(C(C)(C)C)CC2)ccc1Cl` [Compound 12-102], the EC50 lay in the range of 50 to 250 nM.
